Measurements from patent US20080108511A1, “GENES AND GENE PRODUCTS […] EXPRESSED DURING HEART FAILURE” (priority 2006, published 2008).
Marks after values point to notes of the source that are not given here.

Test system: turkey poults
Conditions: in vivo
From the text: The values shown in Table 4 are the average values±the standard error. The values in parentheses indicate the number of hearts. CK is creatine kinase, LDH is lactate dehydrogenase, and AST is aspartate transaminase. Ca^2+-ATPase activity was normalized per gram of protein. * represents p<0.05.

SMILES: O=C1OCCN1/N=C/c1ccc([N+](=O)[O-])o1 [Fz, furazolidone]
- ATP synthase: 87 ± 4* (4) IU/g
- LDH: 219 ± 12* (9) IU/g
- Myoglobin: 27.2 ± 3.1* (5) μg/g
- SR Ca2+ cycling: Ca2+-ATPase: 3.4 ± 0.6* (4) IU/g
- SR Ca2+ cycling: Ca2+-ATPase pump: 24.4 ± 6.3* (9) nM/s
- Total ATPase: 16.8 ± 0.9* (4) IU/g
- Total protein: 111 ± 3.0* (8) mg/g
- myofibrillar protein content: 34.6 ± 2.5 mg/g
